The values that follow come from US20130053323A1, “METHODS AND USE RELATED TO HUMANIN AND HUMANIN-LIKE PEPTIDES” (priority 2009, published 2013).

Data set [1] concerns apoptosis inducing factor (AIF) and BAX. Kind of data set: Western immunoblotting of pro-apoptotic proteins in C5.18 chondrocytic cell line. As to conditions: 1000 nM bortezomib, 6hrs. The data set is classed as cell-based, rat. As to the method: Western immunoblotting to study protein expression was performed in the rat C5.18 chondrocytic cell line after treatment with 1000 nM CT (bortezomib) or 100 nM humanin analog HNG (S14G)/1000 nM CT (bortezomib (Btz)) for 6hrs. […] By adding humanin analog HNG (S14G), the up-regulation and activation of the two pro-apoptotic proteins were suppressed. […] As an internal control the house-keeping gene, GAPDH (35 kDa) was used. The experiment was repeated twice.

Data set [2] concerns growth plate chondrocytes. The data set can be described thus: TUNEL chondrocyte apoptosis in growth plate sections of C57B and NMRI mice. As to conditions: bortezomib 1 mg/kg i.p.; day 13 (48 hrs post treatment); each strain, p<0.001 vs vehicle. The class given is in vivo. The procedure: (§1) Normal 5-week old male C57B and NMRI (B&K Universal, Sollentuna, Sweden) mice were housed one per cage in our animal care facility under a 12-h light, 12-h dark schedule with water ad libitum. After an adaptation period, each strain of mice were divided into two groups according to their body weight and were weight-matched into pairs to either receive 1 cycle intra peritoneal (i.p) injections of CT (bortezomib; Millennium Pharmaceuticals, USA, 1 mg/kg of body weight; 2 injections/week, 2 weeks treatment) or saline (vehicle). Body weight, food and general physical status was recorded daily during the first 20 days, and each vehicle-treated mouse was pair-fed to corresponding weight-matched CT (bortezomib)-treated mice. […] X-ray analyses where performed approximately every second week from start of treatment (represents time-point zero) to time of killing (day 56).
Cell death is a well known and desirable phenomenon in the anti-cancer therapy. However, side-effects of the treatment in other tissues and cells is not uncommon. To further investigate the underlying mechanism(s) to the observed growth impairment in vivo we studied apoptosis (by the TUNEL method). Apoptosis was quantified in paraffin embedded growth plate sections of CT (bortezomib) and vehicle treated C57B and NMRI mice sacrificed on day 13 of the study (48 hrs post treatment).

For data set [3], the system named is chondrocytes of fetal rat metatarsal bones. Kind of data set: TUNEL apoptosis in growth plate sections of cultured rat metatarsal bones. The class given is cell-based. As to conditions: bortezomib 1-1000 nM, 12-day culture, p<0.001 vs control. The procedure: (§2) The three middle metatarsal bone rudiments were dissected out from the paws of 20-day-old embryos (E20) (De Luca, Barnes et al. 2001). After dissection, bones were transferred to 24-well plates, one bone per well and cultured in 0.5 ml phenol-red MEM medium supplemented with 0.2% endotoxin-free fraction BSA, […] β-glycerophosphate, 0.05 mg/ml ascorbic acid and 100 μg/ml penicillin/streptomycin at 37° C. under 5% CO2 in humidified atmosphere. Medium was changed every 2-3 days. Images were captured at days 0, 2, 5, 7, 9 and 12 of culture, using a Hamamatsu C4742-95 digital camera mounted on a Nikon SMZ-U microscope. The Image-Pro plus™ (Media Cybernetics, USA) software was used to measure longitudinal growth. Metatarsal bone growth is expressed as a percentage of the length at the day of dissection (regarded as day 0). Treatment with CT (bortezomib), dexamethasone and/or HNG (S14G) was started 2-4 hours after dissection. All isolated bones were pooled and then randomly divided into the different treatment groups (4 to 6 bones per group). Each experiment was repeated at least 3 times.
CT (bortezomib) is a cytotoxic drug known to cause critical alterations in cells/tissues and disturb the cellular homeostasis. […] Apoptosis was analyzed in whole growth plate sections of 12-day cultured rat metatarsal bones (perichondrium excluded) by applying the TUNEL technique to detect DNA fragmentation.

The next data set concerns C57B and NMRI mice. The data set can be described thus: Bone length (X-ray) and body weight in normal C57B and NMRI mice. The class given is in vivo. As to conditions: for bone length (femur, X-ray): bortezomib 1 mg/kg i.p., 1 cycle. The procedure: as §1
FIG. 5 illustrates a schematic representation of the experimental design for the in vivo studies in C57B and NMRI mice. Both strains of mice were housed one per cage with water ad libitum. At start of treatment, mice were randomized into two groups based on their body weight and were weight-matched into pairs to either receive 1 cycle of intraperitoneal (i.p.) injected CT (bortezomib, 1 mg/kg) or vehicle at the indicated time-points; day 1, 4, 8 and 11. Each vehicle treated mouse was pair-fed to a corresponding weight-matched CT (bortezomib) treated mouse. Mice were killed (t) on day 13 (48 hrs post treatment) or on day 56 (45 days post treatment). X-ray analyses where performed approximately every second week from start of treatment (represents time-point zero) to time of killing (day 13 or 56). Bone lengths (mm) of femur were analyzed in vehicle- and CT (bortezomib) treated animals. Each group included 7-10 mice.
Body weight was measured in both strains of mice every day until day 20 after start of treatment, and once per week thereafter. […] The vertical hatched line in FIGS. 6A and B indicates the last injection on day 11. In light of the growth inhibiting effect on metatarsal bones in vitro and the association of many other cytotoxic drugs, the effect on bone growth was investigated in vivo. Normal 5-week old male C57B and NMRI mice were weigh-matched into pairs to either receive 1 cycle intra peritoneal (i.p) injections of CT (bortezomib) at a clinical relevant dose (1mg/kg of body weight; 2 injections/week, 2 weeks treatment) or saline (vehicle). One group were killed 48 hrs after last injection (day 13) to study the direct effects on bone growth and the growth plate chondrocytes. The second group of animals were followed another 45 days without any treatment and then killed (day 56, 45 days post treatment) to look at the long-term effect and if there was any catch-up growth. […]

A further data set relates to growth plate. The source says:
The proteasome inhibitors (PIs), including bortezomib (Velcade™, PS-341), belong to another novel and promising group of CT that has past phase I clinical trials (Blaney, Bernstein et al. 2004) and are now under phase II clinical trials in pediatric cancers. However, secondary effects on normal bystander tissues of primary life saving modalities are so far unknown.

Data set [4] deals with neuroblastoma (SK-N-BE(2)) tumor xenografts. Kind of data set: Doubling time of tumors in neuroblastoma xenografts. As to conditions: bortezomib 0.8 mg/kg i.v. days 1, 4, 8, 11; p<0.05 vs vehicle. The class given is in vivo, human. On the technique in general: A xenograft is tissue or cells of one species grown in another, often human tumour cells in immunodeficient mice.
Data set [5] deals with human growth plate cartilage. The data set is classed as cell-based. As to conditions: both, 24 h, 1000 nM. As to the method: Biopsies from the proximal tibia and distal femur growth plates were collected in 5 pubertal children (3 boys and 2 girls) undergoing epiphyseal surgery for different medical conditions (4 patients with constitutional tall stature and 1 patient with leg length discrepancy). Biopsies were cut into thin slices under microscope and cultured for 24 hrs in the presence of 1000 nM CT (bortezomib). After fixation and sectioning, growth plates were analyzed using the TUNEL assay to determine the levels of chondrocyte apoptosis. […] CT (bortezomib) caused a significant increase in apoptosis (22.2±4.4% TUNEL positive cells vs. 6.3±1.8% in control; **p≦0.01, n=5 patients), which was mainly observed in stem-like and early proliferative chondrocytes. Our confirmation that human growth plate cartilage is also highly sensitive to bortezomib-induced cytotoxicity is of considerable clinical importance.

Data set [6] has as its system fetal rat metatarsal bones. The data set can be described thus: Longitudinal growth of cultured fetal rat metatarsal bones. The data set is classed as cell-based. The procedure: as §2
The data shown in FIG. 2A indicates novel growth promoting/protective effects of humanin analog HNG (S14G) on longitudinal bone growth in cultured fetal rat metatarsal bones. […] Briefly, fetal rat metatarsal bones were pre-treated with different concentrations (mentioned in the figure) of HNG (S14G), 30 min prior to addition of Dexa. […] (n=4-6 bones/group)
CT (bortezomib) is a cytotoxic drug known to cause critical alterations in cells/tissues and disturb the cellular homeostasis. To test the effect of CT (bortezomib) on chondocytes and longitudinal bone growth, the established in vitro model of fetal rat metatarsal bones was used. These bones were collected as described in material and methods, cultured and treated with different concentrations of CT (bortezomib) under sterile conditions for up to 12 days. […] Apoptosis was analyzed in whole growth plate sections of 12-day cultured rat metatarsal bones (perichondrium excluded) by applying the TUNEL technique to detect DNA fragmentation.
In an attempt to block and prevent the negative effects on growth after CT (bortezomib)-treatment, recently discovered humanin analog HNG (S14G) was tested in vitro in fetal rat metatarsal bones.

Take `CC(C)C[C@H](NC(=O)[C@H](Cc1ccccc1)NC(=O)c1cnccn1)B(O)O` [CT (bortezomib), bortezomib]: the “expression of pro-apoptotic proteins AIF and BAX” value in data set [1] is “induce up-regulation and activation”. Moreover, the figures for the “chondrocyte apoptosis (TUNEL)” value in data set [2] and in data set [3] were “significant induction of chondrocyte apoptosis” and “significant dose-dependent increase in chondrocyte apoptosis”, respectively. Further, the body weight entry in the data set on C57B and NMRI mice (C57BL mice, bortezomib 1 mg/kg i.p. days 1, 4, 8, 11, vs vehicle) is on record as “no difference in body weight”; with C57B and NMRI mice (NMRI mice, bortezomib 1 mg/kg i.p. days 1, 4, 8, 11, day 36 until day 56, vs vehicle) it was “significant difference in body weight”. For the same compound, the “bone length (femur, X-ray)” value is on record as “still significantly shorter” in the data set on C57B and NMRI mice (after 45 day follow-up (day 56), p<0.001); “significantly shorter” in the data set on C57B and NMRI mice (day 13, both strains, p<0.001 vs vehicle). The “effect on growth plate and growth” value with growth plate is “permanent growth retardation and chondrocyte cell death”. For the same compound, in data set [4], the tumor doubling time result was “significant reduction in tumor doubling time”. The TUNEL positive cells in data set [5] amounted to 22.2±4.4%. For the same compound, the longitudinal bone growth result is on record as “Significant growth suppression” in data set [6] (bortezomib 50 nM or higher, from day 2 throughout 12 days, p<0.001 vs control); “permanent growth arrest” in data set [6] (bortezomib 1000 nM for only 24 hrs, then control medium up to 12 days); “completley abolished growth” in data set [6] (bortezomib, all concentrations tested (25-100 nM)).
